From US9901578B2, “Combination of 10-propargyl-10-deazaaminopterin and erlotinib for the treatment of non-small cell lung cancer” (Allos Therapeutics, Inc., priority 2007, dated 2018) come the findings set out here.

The structures appear in SMILES notation. Where “and” joins values, the source holds several entries; their conditions need not be identical. Equal values may be shown once. Entries after “also recorded” stand apart in the source; their conditions may differ. Read-outs that look alike come from different tables or passages of the source.

In general, IC50 refers to the concentration that gives 50% inhibition.

Data set [1] deals with FPGS activity (polyglutamylation). The data set can be described thus: Polyglutamylation of radiolabeled drug in H460 cells. It counts as cell-based, human. Conditions: lysates of treated H460 cells; PDX, MTX 5 μM, Alimta 20 μM.
For a further data set, the system named is H460 cells. The experiment in a line: Short-term uptake of radiolabeled drug in H460 cells. It counts as cell-based, human. Conditions: for Total uptake of radiolabeled drug: measured at 15 and 60 minutes, PDX, MTX 5 μM, Alimta 20 μM.
Another data set deals with A549 cells. The data set can be described thus: In vitro growth inhibition in A549 cells. It counts as cell-based, human. On the procedure: The human non small lung carcinoma cell line A549 was purchased from the American Type Culture Collection (ATCC, Manassas, Va.). The cell line was cultured in Ham's F 12K medium with 2 mM L-glutamine 1.5 g/L sodium bicarbonate, supplemented with 10% fetal bovine serum and was maintained at 37° C. in a humidified atmosphere at 5% CO2 and 95% air.
An in vitro study in A549 cells was performed to compare the growth inhibition activity of PDX to that of cisplatin, paclitaxel, and docetaxel.

How the values of data set [2] were obtained:
To evaluate the doses to be tested in the xenograft mouse model, non-tumor bearing female athymice nu/nu mice were treated with 2 mg/kg of PDX alone and in combination with 50 mg/kg of Tarceva® as described in Table 1. Animals were monitored daily for routine health observation. Body weight of the animals was recorded daily during the treatment phase and thereafter twice weekly for 14 days after the last treatment).

The target of a further data set is T1, human recombinant DHFR (Homo sapiens, UniProt P00374).
T1 sequence (P00374 1-187): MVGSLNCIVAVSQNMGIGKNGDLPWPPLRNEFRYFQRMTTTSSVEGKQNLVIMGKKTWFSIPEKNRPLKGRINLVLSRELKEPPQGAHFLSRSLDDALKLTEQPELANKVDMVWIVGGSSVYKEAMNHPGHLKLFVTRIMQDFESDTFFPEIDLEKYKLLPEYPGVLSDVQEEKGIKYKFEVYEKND
The experiment in a line: DHFR inhibition in a cell-free assay. It is filed as biochemical. To be noted: read-out: Apparent Ki for DHFR inhibition. The source says:
(§1) Endpoints included mean tumor growth inhibition or regression. We further evaluated activity and/or expression of folate-dependent enzymes: DHFR, thymidylate synthase (TS), and folylpolyglutamate synthase (FPGS) using kinetic assays and immunostaining in tumors harvested at the end of the study from animals treated with the antifolates or vehicle controls. In vitro studies included evaluation of reduced folate carrier (RFC) expression by quantitative RT-PCR in MV522, and H460, xenograft models. […] Inhibition of DHFR by the three antifolates was quantified in a cell-free assay against human recombinant DHFR.

For the next data set, the system named is A549 xenograft. The data set can be described thus: A549 xenograft mouse model, tumor volume. It is filed as in vivo, athymic nu/nu mice. To be noted: for Effect on tumor growth: 35 days. The procedure:
Xenotransplant of A549 was established by subcutaneous inoculation of 5×10^6 cells on the right flank using a 21G needle in 6-8 week female athymic nude mice. A total of 75 animals were injected with A549 xenotransplant. Tumor volume was monitored twice weekly, once the established tumor reached 75-150 mm^3 (individual tumor range between 70 to 200 mm^3) the mice were randomized to the different groups as described in Table 2.
Tumor volume and body weights were measured twice weekly up to 58 days following A549 inoculation. Tumor volume was calculated using the following formula: Tumor volume=(A^2×B/2) where A is the smallest diameter and B is the largest diameter.
The treatment was initiated on the day of randomization according to the schedule described in Table 2. PDX was administered via IP injection and Tarceva® by oral gavage. PBS and 0.5% CMC were administrated to Group 1 as control vehicles by IP and PO routes, respectively.
Statistical analysis was performed using Graphpad Prism software. Comparison between control group and treatment groups was performed using 2 way ANOVA analysis.

In data set [3] the test system is TS enzymatic activity and protein expression, and DHFR protein content. The experiment in a line: Activity/expression of folate-dependent enzymes in harvested tumors. It is filed as in vivo. Conditions: H460 and MV522 tumor xenografts.
Excerpt: as §1

The test system of a further data set is H460 xenografts. The data set can be described thus: H460 non-small cell lung carcinoma human tumor xenograft. It counts as in vivo. To be noted: PDX 1 mg/kg and 2 mg/kg.
Excerpt: as §1

For another data set, the system named is MV522 xenografts. The data set can be described thus: MV522 non-small cell lung carcinoma human tumor xenograft. To be noted: PDX 1 mg/kg and 2 mg/kg. It is filed as in vivo.
Excerpt: as §1
In general terms: In xenograft studies the graft and the host belong to different species.

On to `Nc1nc2[nH]cc(CCc3ccc(C(=O)N[C@@H](CCC(=O)O)C(=O)O)cc3)c2c(=O)[nH]1` [Alimta, pemetrexed], for which, in [1], the Polyglutamylation result is “much lesser polyglutamylation”. In addition, the “Total uptake of radiolabeled drug” value in the data set with H460 cells is recorded as “decreased later”.

Compound `N.N.[Cl][Pt][Cl]` [Cisplatin] came in with an IC50 in the data set with A549 cells of 22.4 nM.

For the compound `CC(=O)O[C@@]12CO[C@@H]1C[C@H](O)[C@@]1(C)C(=O)[C@H](O)C3=C(C)[C@@H](OC(=O)[C@H](O)[C@@H](NC(=O)OC(C)(C)C)c4ccccc4)C[C@@](O)([C@@H](OC(=O)c4ccccc4)[C@H]21)C3(C)C` [Docetaxel], half-maximal inhibition in the data set with A549 cells (Homo sapiens) (IC50) required 23.6 nM.

Turning to `CN(Cc1cnc2nc(N)nc(N)c2n1)c1ccc(C(=O)N[C@@H](CCC(=O)O)C(=O)O)cc1` [MTX, methotrexate], in data set [1], the Polyglutamylation entry was “much lesser polyglutamylation”. For the same compound, in the data set with H460 cells (in comparison with PDX or Alimta), the “Fraction of radiolabeled drug that entered the cells” value is listed as “significantly smaller fraction”.

In the case of `C#CCC(Cc1cnc2nc(N)nc(N)c2n1)c1ccc(C(=O)N[C@@H](CCC(=O)O)C(=O)O)cc1` (stereo partly shown) [PDX, 10-Propargyl-10-deazaaminopterin], the Tolerability entry in [2] (PDX 2 mg/kg IP QDx5 two cycles, Tarceva 50 mg/kg PO QDx21, alone or combined) was “well tolerated”. The Ki at human recombinant DHFR came out at 45 nM. For the same compound, the entries for the “Effect on tumor growth” value in the data set on A549 xenograft (PDX 1 mg/kg IP QDx5 two cycles) and with A549 xenograft (PDX 2 mg/kg IP QDx5 two cycles) were “a trend in reducing tumor growth; also recorded: a trend toward controlling tumor growth” and “a trend in reducing tumor growth; also recorded: a trend toward controlling tumor growth; also recorded: inhibited the growth of the A549 xenografts”, respectively. Besides, the “Tumor volume Avg ± SD” value with A549 xenograft (PDX 1 mg/kg IP QDx5 two cycles, day 0) stood at 132 ± 52. mm^3; in the data set on A549 xenograft (PDX 1 mg/kg IP QDx5 two cycles, day 3), 148 ± 67. mm^3; in the data set with A549 xenograft (PDX 1 mg/kg IP QDx5 two cycles, day 7), 176 ± 87. mm^3; in the data set with A549 xenograft (PDX 1 mg/kg IP QDx5 two cycles, day 10), 158 ± 93. mm^3; with A549 xenograft (PDX 1 mg/kg IP QDx5 two cycles, day 14) it was 199 ± 79. mm^3; with A549 xenograft (PDX 1 mg/kg IP QDx5 two cycles, day 17), 190 ± 78. mm^3. Also, the “Tumor volume Avg ± SD” value in the data set on A549 xenograft (PDX 1 mg/kg IP QDx5 two cycles, day 21) came out at 179 ± 112 mm^3; in the data set on A549 xenograft (PDX 1 mg/kg IP QDx5 two cycles, day 24) it was 191 ± 105 mm^3; in the data set with A549 xenograft (PDX 1 mg/kg IP QDx5 two cycles, day 28), 201 ± 114 mm^3; with A549 xenograft (PDX 1 mg/kg IP QDx5 two cycles, day 35) it was 224±128 mm^3; in the data set with A549 xenograft (PDX 2 mg/kg IP QDx5 two cycles, day 0), 131 ± 49. mm^3; in the data set with A549 xenograft (PDX 2 mg/kg IP QDx5 two cycles, day 3), 133 ± 60. mm^3. The “Tumor volume Avg ± SD” value in the data set with A549 xenograft (PDX 2 mg/kg IP QDx5 two cycles, day 7) was found to be 166 ± 75. mm^3; in the data set on A549 xenograft (PDX 2 mg/kg IP QDx5 two cycles, day 10), 139 ± 70. mm^3; in the data set with A549 xenograft (PDX 2 mg/kg IP QDx5 two cycles, day 14), 207 ± 100 mm^3; in the data set on A549 xenograft (PDX 2 mg/kg IP QDx5 two cycles, day 17), 174 ± 104 mm^3; in the data set with A549 xenograft (PDX 2 mg/kg IP QDx5 two cycles, day 21) it was 194 ± 114 mm^3; with A549 xenograft (PDX 2 mg/kg IP QDx5 two cycles, day 24) it was 194 ± 101 mm^3. Further, the “Tumor volume Avg ± SD” value was 189 ± 106 mm^3 in the data set with A549 xenograft (PDX 2 mg/kg IP QDx5 two cycles, day 28) and 210±109 mm^3 in the data set with A549 xenograft (PDX 2 mg/kg IP QDx5 two cycles, day 35). Also, it took 65.1 nM to reach half-maximal inhibition in the data set on A549 cells (Homo sapiens) (IC50). The “Effect on TS enzymatic activity and protein expression, and DHFR protein content” value in [3] is “down-regulated most of these endpoints”. In addition, the Tumor growth entry in the data set on H460 xenografts and in the data set on MV522 xenografts was “dose-dependently inhibited tumor growth” throughout. For the same compound, the Polyglutamylation result in data set [1] is “greater polyglutamylation”. The “Total uptake of radiolabeled drug” value in the data set with H460 cells is given as “increased over time”.

`CC(=O)O[C@H]1C(=O)[C@@]2(C)[C@H]([C@H](OC(=O)c3ccccc3)[C@]3(O)C[C@H](OC(=O)[C@H](O)[C@@H](NC(=O)c4ccccc4)c4ccccc4)C(C)=C1C3(C)C)[C@]1(OC(C)=O)CO[C@@H]1C[C@@H]2O` [Paclitaxel] showed an IC50 in the data set with A549 cells (Homo sapiens) of 109 nM.

Regarding `C#Cc1cccc(Nc2ncnc3cc(OCCOC)c(OCCOC)cc23)c1` [Tarceva, [6,7-bis(2-methoxyethoxy)-4-quinazolin-4-yl]-(3-ethynylphenyl)amine, reference compound], in data set [2] (mouse, in vivo), the Tolerability entry is recorded as “well tolerated”. Also, the “Effect on tumor growth” value in the data set on A549 xenograft (Tarceva 50 mg/kg PO) is given as “did not control tumor growth”. Besides, the “Tumor volume Avg ± SD” value with A549 xenograft (Tarceva 50 mg/kg PO, day 0) is 131 ± 47. mm^3; in the data set with A549 xenograft (Tarceva 50 mg/kg PO, day 3) it was 166 ± 80. mm^3; in the data set with A549 xenograft (Tarceva 50 mg/kg PO, day 7), 216 ± 121 mm^3; with A549 xenograft (Tarceva 50 mg/kg PO, day 10) it was 214 ± 140 mm^3; with A549 xenograft (Tarceva 50 mg/kg PO, day 14), 249 ± 130 mm^3; in the data set with A549 xenograft (Tarceva 50 mg/kg PO, day 17), 271 ± 206 mm^3. Further, the “Tumor volume Avg ± SD” value in the data set on A549 xenograft (Tarceva 50 mg/kg PO, day 21) is 270 ± 210 mm^3; in the data set with A549 xenograft (Tarceva 50 mg/kg PO, day 24), 294 ± 261 mm^3; in the data set on A549 xenograft (Tarceva 50 mg/kg PO, day 28), 308 ± 280 mm^3; in the data set on A549 xenograft (Tarceva 50 mg/kg PO, day 35), 358±282 mm^3 and 357 ± 282 mm^3.
